Drawing on patent publication US20240072809A1, “ASGPR-BINDING COMPOUNDS FOR THE DEGRADATION OF EXTRACELLULAR PROTEINS” (Avilar Therapeutics, Inc., priority 2020, published 2024), this text covers Kd for 29 compounds.

SMILES strings stand for the structures. Read-outs that look alike come from different tables or passages of the source. Bridge positions count the residues as written; N and C are the ends. Peptide text beside a SMILES is read from it. * marks the point of attachment. X1 = O=C(CCOCC(COCCC(=O)NCCOCCOCCOCCOC[C@@]12CO[C@@H](O1)[C@H](NC(=O)C(F)(F)F)[C@@H](O)[C@H]2O)(COCCC(=O)NCCOCCOCCOCCOC[C@@]12CO[C@@H](O1)[C@H](NC(=O)C(F)(F)F)[C@@H](O)[C@H]2O)NC(=O)CCO[C@H]1C[C@H](OCCC(=O)*)C1)NCCOCCOCCOCCOC[C@@]12CO[C@@H](O1)[C@H](NC(=O)C(F)(F)F)[C@@H](O)[C@H]2O; X3 = CO[C@@H]1O[C@H](COCCOCCOCCOCCNC(=O)CCOCC(COCCC(=O)NCCOCCOCCOCCOC[C@H]2O[C@@H](OC)[C@H](NC(C)=O)[C@@H](O)[C@H]2O)(COCCC(=O)NCCOCCOCCOCCOC[C@H]2O[C@@H](OC)[C@H](NC(C)=O)[C@@H](O)[C@H]2O)NC(=O)COCCOCCOCC(=O)*)[C@H](O)[C@H](O)[C@H]1NC(C)=O

This assay has as its target ASGPR (Homo sapiens (Human), UniProt P07306). As to the kind of experiment: Affinity to ASGPR measured by surface plasmon resonance (SPR). It is filed as binding.
The mark [1] stands for this setting: ASGPR ligands, Table 2, Biacore 8K, 25° C., steady state fit, read-out: SPR Binding External Calculation: KD.
[2] abbreviates: ASGPR ligands with linker, Table 5, read-out: ASGPR_SPR Binding KD.
Where [3] appears, read: ASGPR ligands, Table 4, class symbols, read-out: ASGPR_PR Binding KD.

Chain of ASGPR (P07306 whole entry): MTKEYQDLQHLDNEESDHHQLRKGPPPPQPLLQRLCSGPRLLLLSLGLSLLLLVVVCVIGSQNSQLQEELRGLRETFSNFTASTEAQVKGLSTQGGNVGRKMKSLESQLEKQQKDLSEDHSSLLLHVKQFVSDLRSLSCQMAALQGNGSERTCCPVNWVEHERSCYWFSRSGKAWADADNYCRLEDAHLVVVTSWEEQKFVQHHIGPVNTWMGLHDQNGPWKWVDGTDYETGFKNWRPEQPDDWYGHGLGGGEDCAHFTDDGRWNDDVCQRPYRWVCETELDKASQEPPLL

With `CC1C(Oc2ccccc2)O[C@H](CO)[C@H](O)[C@@H]1O` (stereo in doubt) [Compound A192, (2R,3R,4R,5R,6S)-2-(hydroxymethyl)-5-methyl-6-phenoxytetrahydro-2H-pyran-3,4-diol], the Kd under setting [1] was greater than 1000 µM. For `CC(C)C[C@H]1NC(=O)[C@@H](CC(=O)[C@@H](NC(=O)[C@H](CCC(N)=O)NC(=O)[C@H](Cc2cnc[nH]2)NC(=O)CCOCCOCCOCCOCCNC(=O)CCCc2cn(CCCC(=O)NCCOCc3cnn(CCOCCOCCOCCO[C@@]45CO[C@@H](O4)[C@H](NC(=O)C(F)(F)F)[C@@H](O)[C@H]5O)c3)nn2)C(C)C)CSSC[C@@H](C(=O)N[C@@H](Cc2ccccc2)C(=O)N[C@@H](CO)C(=O)NC(C=O)[C@@H](C)O)NC(=O)[C@H](C(C)C)NC(=O)[C@@H]2CCCN2C(=O)[C@H](CCCNC(=N)N)NC(=O)CNC(=O)[C@@H](CCCNC(=N)N)NC(=O)[C@H](Cc2ccc(O)cc2)NC(=O)[C@H](CO)CC1=O` (some centres unmarked) [Compound 26], the Kd (extracellular protein degrading compounds, Table 3, read-out: SPR Binding External Calculation: KD (uM) ASGPR) was less than 100 µM. Consider `CO[C@@H]1O[C@H](COCCOCCOCCOCCNC(=O)CCOCC(COCCC(=O)NCCOCCOCCOCCOC[C@H]2O[C@@H](OC)[C@H](NC(C)=O)[C@@H](O)[C@H]2O)(COCCC(=O)NCCOCCOCCOCCOC[C@H]2O[C@@H](OC)[C@H](NC(C)=O)[C@@H](O)[C@H]2O)NC(=O)COCCOCCOCC(=O)N[C@@H](Cc2cnc[nH]2)C(=O)N[C@@H](CCC(N)=O)C(=O)N[C@H](C(=O)N[C@H]2CSSC[C@@H](C(=O)N[C@@H](Cc3ccccc3)C(=O)N[C@@H](CO)C(=O)N[C@H](C(N)=O)[C@@H](C)O)NC(=O)[C@H](C(C)C)NC(=O)[C@@H]3CCCN3C(=O)[C@H](CCCNC(=N)N)NC(=O)CNC(=O)[C@H](CCCNC(=N)N)NC(=O)[C@H](Cc3ccc(O)cc3)NC(=O)[C@H](CO)NC(=O)[C@H](CC(C)C)NC2=O)C(C)C)[C@H](O)[C@H](O)[C@H]1NC(C)=O` [Compound 30] (X3-HQVCLSYRGRPVCFST-NH2; disulfide 4-13), for which the Kd (read-out: ASGPR_SPR Binding KD) is less than 100 µM. As to `CC(C)C[C@@H]1NC(=O)[C@@H](NC(=O)[C@@H](NC(=O)[C@H](CCC(N)=O)NC(=O)[C@H](Cc2cnc[nH]2)NC(=O)CCO[C@H]2C[C@H](OCCC(=O)NC(COCCC(=O)NCCOCCOCCOCCOC[C@@]34CO[C@@H](O3)[C@H](NC(=O)C(F)(F)F)[C@@H](O)[C@H]4O)(COCCC(=O)NCCOCCOCCOCCOC[C@@]34CO[C@@H](O3)[C@H](NC(=O)C(F)(F)F)[C@@H](O)[C@H]4O)COCCC(=O)NCCOCCOCCOCCOC[C@@]34CO[C@@H](O3)[C@H](NC(=O)C(F)(F)F)[C@@H](O)[C@H]4O)C2)C(C)C)CSSC[C@@H](C(=O)N[C@@H](Cc2ccccc2)C(=O)N[C@@H](CO)C(=O)N[C@H](C(N)=O)[C@@H](C)O)NC(=O)[C@H](C(C)C)NC(=O)[C@@H]2CCCN2C(=O)[C@H](CCCNC(=N)N)NC(=O)CNC(=O)[C@H](CCCNC(=N)N)NC(=O)[C@H](Cc2ccc(O)cc2)NC(=O)[C@H](CO)NC1=O` [Compound 31] (X1-HQVCLSYRGRPVCFST-NH2; disulfide 4-13), the Kd under setting [2] is less than 100 µM. Take `CC(=O)N[C@@H]1CO[C@H](COCCOCCOCCOCCNC(=O)CCOCC(COCCC(=O)NCCOCCOCCOCCOC[C@H]2OC[C@@H](NC(C)=O)[C@@H](O)[C@H]2O)(COCCC(=O)NCCOCCOCCOCCOC[C@H]2OC[C@@H](NC(C)=O)[C@@H](O)[C@H]2O)NC(=O)COCCOCCOCCNc2ccc([N+](=O)[O-])cc2[N+](=O)[O-])[C@H](O)[C@@H]1O` [Compound 33, 3,3′-((2-(2-(2-(2-(2-((2,4-dinitrophenyl)amino)ethoxy)ethoxy)ethoxy)acetamido)propane-1,3-diyl)tris(oxy))tris(N-(1-((2R,3R,4R,5R)-5-acetamido-3,4-dihydroxytetrahydro-2H-pyran-2-yl)-2,5,8,11-tetraoxatridecan-13-yl)propanamide)]: under setting [2], the Kd is less than 100 µM. On the same count and under the same terms, the same measure for `O=[N+]([O-])c1ccc(NCCOCCOCCOCCOC[C@H]2OC[C@H](Nc3nccc(C(F)(F)F)n3)[C@@H](O)[C@H]2O)c([N+](=O)[O-])c1` [Compound 35, (2R,3R,4R,5S)-2-(13-((2,4-dinitrophenyl)amino)-2,5,8,11-tetraoxatridecyl)-5-((4-(trifluoromethyl)pyrimidin-2-yl)amino)tetrahydro-2H-pyran-3,4-diol]: less than 100 µM. For the compound `CO[C@@H]1O[C@H](CO)[C@H](O)[C@H](O)[C@H]1N` [Compound A90, (2R,3R,4R,5R,6R)-5-amino-2-(hydroxymethyl)-6-methoxytetrahydro-2H-pyran-3,4-diol], under setting [1], the Kd is 100 to 500 µM. Turning to `CO[C@H]1O[C@H](CO)[C@H](O)[C@H](O)[C@H]1N` [Compound A91, (2R,3R,4R,5R,6S)-5-amino-2-(hydroxymethyl)-6-methoxytetrahydro-2H-pyran-3,4-diol], the Kd under setting [3] is less than 100 µM. Turning to `N[C@H]1CO[C@H](CO)[C@H](O)[C@@H]1O` [Compound A92, (2R,3R,4R,5S)-5-amino-2-(hydroxymethyl)tetrahydro-2H-pyran-3,4-diol], the Kd under setting [1] was greater than 1000 µM.

With `N#Cc1sc(N[C@H]2CO[C@H](CO)[C@H](O)[C@@H]2O)nc1Cl` [Compound A95, 4-chloro-2-(((3S,4R,5R,6R)-4,5-dihydroxy-6-(hydroxymethyl)tetrahydro-2H-pyran-3-yl)amino)thiazole-5-carbonitrile], the Kd under setting [1] is less than 100 µM. Same read-out and setting: the same measure for `OC[C@H]1OC[C@H](Nc2ncc(Cl)cc2F)[C@@H](O)[C@H]1O` [Compound A100]: less than 100 µM; for `OC[C@H]1OC[C@H](Nc2ncc(F)cc2F)[C@@H](O)[C@H]1O` [Compound A103]: 100 to 500 µM. In the case of `CO[C@H]1O[C@H](CO)[C@H](O)[C@H](O)[C@H]1Nc1nc(Cl)ns1` [Compound A105, (2R,3R,4R,5R,6S)-5-((3-chloro-1,2,4-thiadiazol-5-yl)amino)-2-(hydroxymethyl)-6-methoxytetrahydro-2H-pyran-3,4-diol], under setting [1], the Kd is less than 100 µM. The same measure, in the same setting: the same measure for `CO[C@@H]1O[C@H](CO)[C@H](O)[C@H](O)[C@H]1Nc1nc(Cl)ns1` [Compound A106, (2R,3R,4R,5R,6R)-5-((3-chloro-1,2,4-thiadiazol-5-yl)amino)-2-(hydroxymethyl)-6-methoxytetrahydro-2H-pyran-3,4-diol]: less than 100 µM; for `CO[C@@H]1O[C@H](CO)[C@H](O)[C@H](O)[C@H]1Nc1cccc(F)n1` [Compound A107, (2R,3R,4R,5R,6R)-5-((6-fluoropyridin-2-yl)amino)-2-(hydroxymethyl)-6-methoxytetrahydro-2H-pyran-3,4-diol]: greater than 1000 µM. Still for that read-out and setting: the same measure for `CO[C@@H]1O[C@H](CO)[C@H](O)[C@H](O)[C@H]1Nc1nc(Cl)cs1` [Compound A108]: less than 100 µM; for `CO[C@@H]1O[C@H](CO)[C@H](O)[C@H](O)[C@H]1Nc1ncc(Cl)cc1F` [Compound A109]: less than 100 µM.

As for `CO[C@@H]1O[C@H](CO)[C@H](O)[C@H](O)[C@H]1Nc1nc(=O)[nH]c(=O)[nH]1` [Compound A112, 6-(((2R,3R,4R,5R,6R)-4,5-dihydroxy-6-(hydroxymethyl)-2-methoxytetrahydro-2H-pyran-3-yl)amino)-1,3,5-triazine-2,4(1H,3H)-dione], the Kd under setting [1] was less than 100 µM. Same read-out and setting: the same measure for `CO[C@H]1O[C@H](CO)[C@H](O)[C@H](O)[C@H]1Nc1ncc(Cl)cc1F` [Compound A113]: less than 100 µM; for `CO[C@@H]1O[C@H](CO)[C@H](O)[C@H](O)[C@H]1Nc1nc(N2CCN(C)CC2)ns1` [Compound A116, (2R,3R,4R,5R,6R)-2-(hydroxymethyl)-6-methoxy-5-((3-(4-methylpiperazin-1-yl)-1,2,4-thiadiazol-5-yl)amino)tetrahydro-2H-pyran-3,4-diol]: less than 100 µM; for `CO[C@@H]1O[C@H](CO)[C@H](O)[C@H](O)[C@H]1Nc1nc(N2CCOCC2)ns1` [Compound A117, (2R,3R,4R,5R,6R)-2-(hydroxymethyl)-6-methoxy-5-((3-morpholino-1,2,4-thiadiazol-5-yl)amino)tetrahydro-2H-pyran-3,4-diol]: 100 to 500 µM.

Take `C=CC(=O)N[C@H]1[C@H](OC)O[C@H](CO)[C@H](O)[C@@H]1O` [Compound A118, N-((2R,3R,4R,5R,6R)-4,5-dihydroxy-6-(hydroxymethyl)-2-methoxytetrahydro-2H-pyran-3-yl)acrylamide]: the Kd under setting [1] was less than 100 µM. With `CO[C@@H]1O[C@H](CO)[C@H](O)[C@H](O)[C@H]1n1ccc(=O)cc1` [Compound A119, 1-((2R,3R,4R,5R,6R)-4,5-dihydroxy-6-(hydroxymethyl)-2-methoxytetrahydro-2H-pyran-3-yl)pyridin-4(1H)-one], under setting [1], the Kd is less than 100 µM. Still for that read-out and setting: the same measure for `CC(=O)N[C@@H]1CO[C@H](CO)[C@H](O)[C@@H]1O` [Compound A127, N-((3R,4R,5R,6R)-4,5-dihydroxy-6-(hydroxymethyl)tetrahydro-2H-pyran-3-yl)acetamide]: less than 100 µM. As to `CC(=O)N[C@@H]1CO[C@@H]2COC(C)(C)O[C@@H]2[C@@H]1O` [Compound A127-2c, N-((4aR,7R,8R,8aR)-8-hydroxy-2,2-dimethylhexahydropyrano[3,2-d][1,3]dioxin-7-yl)acetamide], the Kd (ASGPR ligands, Table 4, numeric lower bounds, read-out: ASGPR_PR Binding KD) is greater than 200 µM.

Consider `N[C@@H]1CO[C@H](CO)[C@H](O)[C@@H]1O` [Compound A128, (2R,3R,4R,5R)-5-amino-2-(hydroxymethyl)tetrahydro-2H-pyran-3,4-diol], for which the Kd under setting [1] was greater than 1000 µM. As for `CS(=O)(=O)N[C@@H]1CO[C@H](CO)[C@H](O)[C@@H]1O` [Compound A131, N-((3R,4R,5R,6R)-4,5-dihydroxy-6-(hydroxymethyl)tetrahydro-2H-pyran-3-yl)methanesulfonamide], the Kd under setting [3] was 100 to 500 µM. The same measure, in the same setting: the same measure for `O=C(N[C@@H]1CO[C@H](CO)[C@H](O)[C@@H]1O)c1ccccc1` [Compound A136, N-((3R,4R,5R,6R)-4,5-dihydroxy-6-(hydroxymethyl)tetrahydro-2H-pyran-3-yl)benzamide]: 100 to 500 µM; for `OC[C@H]1OC[C@@H](Nc2nc(Cl)ns2)[C@@H](O)[C@H]1O` [Compound A146, (2R,3R,4R,5R)-5-((3-chloro-1,2,4-thiadiazol-5-yl)amino)-2-(hydroxymethyl)tetrahydro-2H-pyran-3,4-diol]: less than 100 µM.
